# Measurements from patent US5807900A, “Method for identifying compounds having increased activity for the repair of skin photodamage” (priority 1995, dated 1998).
# pEC50, pIC50: −log10 of the molar value. Read-outs that look alike come from different tables or passages of the source.
# Key:
# RAR-β = RAR-β transactivation assay (SeAP reporter, COS cells); format: cell-based, human; conditions: for Transactivation % max (β): relative to all-trans-retinoic acid at same concentration (1,000 nM or 10,000 nM)
# Method: (§1) Retinoid Receptor Transactivation Assays
# (§2) Transactivation assays were performed essentially as described in Apfel et al., supra. For the RAR transcription activation test system, the secreted alkaline phosphatase gene (SeAP) is used as reporter. To have a screening system specific for the transfected receptor, chimeric receptors are used. These contain an estrogen receptor DNA binding domain and therefore recognize the estrogen response element (ERE) which no endogenous RAR's in mammalian cells will recognize.
# (§3) The transactivation assay system has been adapted to 96-well plates and most steps are done by a robot. Briefly, on day 1 confluent COS cells are subcultured at an equivalent density onto 96-well plates in DMEM+10% charcoal stripped serum. On day 2 DNA is prepared for transfection by mixing the following: 10 μg vit-TK-SeAP reporter plasmid, 2 μg RAR expression plasmid, 2 μg transfection control plasmid and 30 μl Transfectam (lipopolyamine transfection reagent). Cells are washed twice with serum-free medium and DNA/transfectam mix added. After 1 hour medium is removed and replaced with growth medium containing test retinoids. On day 4 or 5 the culture supernatant is removed, heated to 65° for 5 min to inactivate nonspecific phosphatases, and diluted 1:10 with water. 20 μl samples are added to 100 μl of phosphatase substrate in buffer. After 1 hour at 37° the luminescence is measured in a 96-well luminometer.
# (§4) 100 μl of β-galactosidase substrate is added to the adherent cells. Plates are incubated for 1 hour at 37° and the supernatants transferred to separate plates for quantitation of β-galactosidase activity by luminescence measurement. Transactivation results are expressed as the ratio of SeAP/β-galactosidase activity for each well to correct for well-to-well variation in transfection efficiency.
# (§5) Data are means of values obtained from two or more individual experiments, rounded off to two significant figures. […] The maximum transactivation activity is determined from the plot where increasing dosage provides little or no additional activity, i.e., where the plot begins to level off. For active retinoids the highest concentration tested is 1000 nM.
# photodamaged skin = assay: Measurement of photodamage repair in the hairless mouse model; format: in vivo, Hairless mice (female, HRS/J strain); conditions: for Photodamage repair activity (scale 0 to 4): UVB-irradiated, topical in acetone three times per week, three doses
# Description: The ability of a composition of the invention to induce repair of photodamaged skin may be determined by any conventional means. One conventional method of determining the ability of a topical composition to repair photodamaged skin is the hairless mouse model described by Kligman et al., supra. […] In this model, repair is defined by the appearance of a zone of normalized dermis extending from the epidermis down to the layer of compressed elastin. The extent of repair is reflected by the width of this zone. […] The average width of the repair zone is then calculated by dividing the area by the length of the histological section that was measured.
# The width of the repair zone is […] an activity value of 4.
# Measurement of Photodamage Repair
# Hairless mice (female, HRS/J strain, Jackson Labs, 5-7 weeks old at the start of the experiments) were housed in yellow light and irradiated three times per week with a bank of 8 Westinghouse Sunlamps (FS120) placed about 20 cm above the animals. Daily doses were 0.03 J/cm^2 for two weeks, 0.06 J/cm2 for two weeks and 0.08 J/cm2 thereafter. The radiation dose is controlled by an International Light Model IL844A Phototherapy Exposure Control and a model SEE240 detector.
# To effect repair of the dermal damage, the UVB irradiation was discontinued and the animals were divided into groups of approximately eight and treated three times per week with various concentrations of the retinoids dissolved in acetone. Stock solutions are made up freshly every week in subdued light at concentrations such that the dose is delivered in 100 μl volume and applied topically with a plastic pipette to an area of about 10 cm^2 on the back of the animal. All dosing was done under yellow light. A control group treated with acetone alone was included.
# Two-cm strips of dorsal skin were taken longitudinally down the center of the irradiated (and treated) area. Elastin fibers were stained with Luna's aldehyde fuchsin and collagen by Van Gieson. In this model, repair is defined by the appearance of a normalized dermis extending from the epidermis down to the layer of compressed elastin. The extent of repair is reflected by the width of this zone. […] Twenty-four fields each of which, at 100X magnification, represents a section of tissue 0.57 mm long, are examined and the area calculated. The results are reported as the average area per field in mm^2. Thus the average width of the repair zone can be obtained by dividing this average area by 0.57 mm. […] All microscopic fields are included in the calculations of average area (or width). Data are analyzed by Student's t-test.
# Compounds are tested at three doses and an approximate ED50 calculated.
# human RAR-α [1] = assay: RAR-α transactivation assay (SeAP reporter, COS cells); format: cell-based; conditions: for Transactivation % max (α): relative to all-trans-retinoic acid at same concentration (1,000 nM or 10,000 nM)
# Method: as §1, §2, §3, §4, §5
# human RAR-γ [2] = assay: RAR-γ transactivation assay (SeAP reporter, COS cells); format: cell-based; conditions: for Transactivation % max (γ): relative to all-trans-retinoic acid at same concentration (1,000 nM or 10,000 nM)
# Method: as §1, §2, §3, §4, §5
# photoaged skin = conditions: human, topical, literature studies; cited from earlier work
# human RAR-γ [3] = assay: Binding assay for human RAR-γ (displacement of 3H-retinoic acid); conditions: 3H-retinoic acid displacement, mean of two or more experiments
# Method: (§6) Binding Assay for Human RAR-α, RAR-β and RAR-γ
# (§7) Binding assays were performed essentially as described in Apfel et al., supra. […] Extracts containing the receptors were used in a competitive binding assay which depends upon the ability of increasing concentrations of a retinoid to displace ^3 H-retinoic acid. In a typical assay, 0.2 to 0.4 picomoles of receptors were incubated in 0.2 ml of 50 mM Tris HCl, pH 7.4, 50 mM NaCl, 2 mM EDTA (binding buffer) containing 0.5% gelatin, 1% DMSO, 2-5 nM ^3 H-retinoic acid and various concentrations of unlabelled retinoids. After 3-5 hours at 22° C., 0.15 ml of chilled charcoal/dextran suspension (5% Norit A/0.5% dextran T-40 in binding buffer) were added for 15 min at 4° C. The tubes were centrifuged at 12,000 x g for 15 minutes and the supernates counted. Binding parameters were calculated from competition curves using the Ligand program.
# (§8) Data are means of values obtained from two or more individual experiments, rounded off to two significant figures. […] When binding inhibition at 10,000 nM is less than 50%, >10,000 is indicated.
# human RAR-α [4] = molecular target: T1, human RAR-α (Homo sapiens, UniProt P10276); assay: Binding assay for human RAR-α (displacement of 3H-retinoic acid); conditions: 3H-retinoic acid displacement, mean of two or more experiments
# T1 sequence (P10276 201-462 limits assumed): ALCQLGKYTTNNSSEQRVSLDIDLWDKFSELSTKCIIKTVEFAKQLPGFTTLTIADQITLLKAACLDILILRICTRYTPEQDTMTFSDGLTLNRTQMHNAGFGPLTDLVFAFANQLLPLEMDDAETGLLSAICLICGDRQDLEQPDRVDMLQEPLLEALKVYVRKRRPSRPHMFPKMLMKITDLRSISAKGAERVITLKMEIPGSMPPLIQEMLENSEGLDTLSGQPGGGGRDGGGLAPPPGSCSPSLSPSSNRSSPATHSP
# human RAR-β = molecular target: T2, human RAR-β (Homo sapiens, UniProt P10826); assay: Binding assay for human RAR-β (displacement of 3H-retinoic acid); conditions: 3H-retinoic acid displacement, mean of two or more experiments
# T2 sequence (P10826 201-455 limits assumed): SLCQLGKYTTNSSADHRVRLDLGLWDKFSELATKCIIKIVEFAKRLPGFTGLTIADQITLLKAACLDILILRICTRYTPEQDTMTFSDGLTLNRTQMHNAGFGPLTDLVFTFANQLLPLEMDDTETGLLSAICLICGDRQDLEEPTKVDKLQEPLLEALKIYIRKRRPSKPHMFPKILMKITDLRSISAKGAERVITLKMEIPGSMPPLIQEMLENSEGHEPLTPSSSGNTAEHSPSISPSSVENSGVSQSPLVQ
# Method: as §6, §7, §8
# [5] = COS cells, 50% of the compound's own maximum, set to highest concentration tested (usually 1000 nM) if no maximum reached, read-out: Transactivation ED50 (β)
# [6] = COS cells, 50% of the compound's own maximum, set to highest concentration tested (usually 1000 nM) if no maximum reached, read-out: Transactivation ED50 (α)
# [7] = RAR-γ, COS cells, 50% of the compound's own maximum, set to highest concentration tested (usually 1000 nM) if no maximum reached, read-out: Transactivation ED50 (γ)
Structure (SMILES),"pEC50 (RAR-β; read-out: Transactivation ED50 (β), COS cells, 50% of the compound's own maximum, set to highest concentration tested (usually 1000 nM) if no maximum reached)",Transactivation % max (β) (RAR-β) [%],Photodamage repair activity (scale 0 to 4) (photodamaged skin),"ED50 for photodamage repair (photodamaged skin; μg of test compound applied to 10 cm^2 of skin area, standard retinoid) [µg]","pEC50 (human RAR-α [1]; read-out: Transactivation ED50 (α), COS cells, 50% of the compound's own maximum, set to highest concentration tested (usually 1000 nM) if no maximum reached)",Transactivation % max (α) (human RAR-α [1]) [%],pEC50 (human RAR-γ [2]),Transactivation % max (γ) (human RAR-γ [2]; RAR-γ) [%],Clinical improvement of photodamaged/photoaged skin (photoaged skin),pEC50 (RAR-β; [5]),pEC50 (human RAR-α [1]; [6]),pEC50 (human RAR-γ [2]; [7]),pIC50 (human RAR-γ [3]),pIC50 (human RAR-α [4]),pIC50 (human RAR-β)
"CC1=C(/C=C/C(C)=C/C=C/C(C)=C\C(=O)O)C(C)(C)CCC1 [B, 13-cis retinoic acid, reference compound]",[…],[…],2 (an ED50 of 10 μg),10,[…],[…],[…],[…],efficacy of isotretinoin in photodamage has been demonstrated,,,,,,
CCCCCOc1cc2c(cc1/C=C/c1ccc(C(=O)O)cc1)C(C)(C)CCC2(C)C [P],,60,4,,,16,,90,,6.82,6.00,7.54,6.17,< 5.00,5.12
CCCCCOc1cc2c(cc1/C=C/C=C/C(C)=C/C(=O)O)C(C)(C)CCC2(C)C [Q],,81,4,,,45,,96,,6.82,6.00,7.54,5.70,< 5.00,5.03
